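Exposure lasted 48 hours, with cells grown in 96-well plates and compounds tested at five concentrations. TGI marks complete inhibition of growth.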 Some results are limits rather than exact numbers.

The first test has as its system A498 renal. Kind of test: growth of human tumour cells (NCI), 48 h.
On to `COc1c(C)c(C/C=C(\C)CCCCO[Si](c2ccccc2)(c2ccccc2)C(C)(C)C)c(OC)c(OC)c1OC`, for which the TGI was greater than 100 µM.
The same measure, in the same setting: for `COC(=O)c1cc2c(n1S(=O)(=O)c1ccc(C)cc1)C(=O)C(=O)c1[nH]cc(C(=O)OCc3ccccc3)c1-2` the value was 3.26 µM; for `CC(C)CC(=O)OC[n+]1ccc(-c2c(COC(=O)NC(C)C)c(COC(=O)NC(C)C)c3n2CCC3)cc1`, greater than 100 µM; for `COC(=O)C1CCC(=O)N1C(c1ccccc1)c1ccc(OC)c(OC)c1` (stereo unspecified), greater than 100 µM.
`COc1ccc(C2c3cc4c(cc3OC(NNS(=O)(=O)c3ccc(C)cc3)C2C)OCO4)cc1` (stereo unspecified): the TGI was greater than 100 µM.
Turning to `O=[N+]([O-])C(=C1NCCN1)/C(Cl)=C(\Cl)Br`, the TGI is greater than 63.4 µM.

The next test has as its system CAKI-1 renal. Kind of test: growth of human tumour cells (NCI), 48 h.
With `COc1c(C)c(C/C=C(\C)CCCCO[Si](c2ccccc2)(c2ccccc2)C(C)(C)C)c(OC)c(OC)c1OC`, the TGI turned out to be 48.1 µM.
On the same count and under the same terms, the figure for `COC(=O)c1cc2c(n1S(=O)(=O)c1ccc(C)cc1)C(=O)C(=O)c1[nH]cc(C(=O)OCc3ccccc3)c1-2` is 1.28 µM; for `CC(C)CC(=O)OC[n+]1ccc(-c2c(COC(=O)NC(C)C)c(COC(=O)NC(C)C)c3n2CCC3)cc1` it is greater than 100 µM; for `COC(=O)C1CCC(=O)N1C(c1ccccc1)c1ccc(OC)c(OC)c1` (stereo unspecified) it is greater than 100 µM.
Still for that read-out and setting: the figure for `COc1ccc(C2c3cc4c(cc3OC(NNS(=O)(=O)c3ccc(C)cc3)C2C)OCO4)cc1` (stereo unspecified) is greater than 100 µM.
On the same count and under the same terms, for `O=[N+]([O-])C(=C1NCCN1)/C(Cl)=C(\Cl)Br` the value was 30 µM.

A further test concerns COLO 205 colon. Kind of test: growth of human tumour cells (NCI), 48 h.
The compound `COc1c(C)c(C/C=C(\C)CCCCO[Si](c2ccccc2)(c2ccccc2)C(C)(C)C)c(OC)c(OC)c1OC` gave a TGI of 39.9 µM.
Turning to `COC(=O)c1cc2c(n1S(=O)(=O)c1ccc(C)cc1)C(=O)C(=O)c1[nH]cc(C(=O)OCc3ccccc3)c1-2`, the TGI worked out at 0.433 µM.
On the same count and under the same terms, the figure for `CC(C)CC(=O)OC[n+]1ccc(-c2c(COC(=O)NC(C)C)c(COC(=O)NC(C)C)c3n2CCC3)cc1` is greater than 100 µM; for `COC(=O)C1CCC(=O)N1C(c1ccccc1)c1ccc(OC)c(OC)c1` (stereo unspecified) it is greater than 100 µM; for `COc1ccc(C2c3cc4c(cc3OC(NNS(=O)(=O)c3ccc(C)cc3)C2C)OCO4)cc1` (stereo unspecified) it is greater than 100 µM.
In turn, `O=[N+]([O-])C(=C1NCCN1)/C(Cl)=C(\Cl)Br` yielded a TGI of 42.6 µM.

The test system of the next test is HOP-92 NSCLC. Briefly: growth of human tumour cells (NCI), 48 h.
On to `COc1c(C)c(C/C=C(\C)CCCCO[Si](c2ccccc2)(c2ccccc2)C(C)(C)C)c(OC)c(OC)c1OC`, for which the TGI was greater than 31.6 µM.
In turn, `COC(=O)c1cc2c(n1S(=O)(=O)c1ccc(C)cc1)C(=O)C(=O)c1[nH]cc(C(=O)OCc3ccccc3)c1-2` yielded a TGI of 0.725 µM.
Same read-out and setting: for `CC(C)CC(=O)OC[n+]1ccc(-c2c(COC(=O)NC(C)C)c(COC(=O)NC(C)C)c3n2CCC3)cc1` the value was greater than 100 µM.
On the same count and under the same terms, for `COC(=O)C1CCC(=O)N1C(c1ccccc1)c1ccc(OC)c(OC)c1` (stereo unspecified) the value was greater than 100 µM; for `COc1ccc(C2c3cc4c(cc3OC(NNS(=O)(=O)c3ccc(C)cc3)C2C)OCO4)cc1` (stereo unspecified), 85.3 µM.
On the same count and under the same terms, the figure for `O=[N+]([O-])C(=C1NCCN1)/C(Cl)=C(\Cl)Br` is greater than 62.2 µM.

A further test deals with HS 578T breast. Briefly: growth of human tumour cells (NCI), 48 h.
Consider `COc1c(C)c(C/C=C(\C)CCCCO[Si](c2ccccc2)(c2ccccc2)C(C)(C)C)c(OC)c(OC)c1OC`, for which the TGI was greater than 100 µM.
On the same count and under the same terms, for `COC(=O)c1cc2c(n1S(=O)(=O)c1ccc(C)cc1)C(=O)C(=O)c1[nH]cc(C(=O)OCc3ccccc3)c1-2` the value was 5.8 µM; for `CC(C)CC(=O)OC[n+]1ccc(-c2c(COC(=O)NC(C)C)c(COC(=O)NC(C)C)c3n2CCC3)cc1`, greater than 100 µM.
As for `COC(=O)C1CCC(=O)N1C(c1ccccc1)c1ccc(OC)c(OC)c1` (stereo unspecified), the TGI is greater than 100 µM.
Still for that read-out and setting: the figure for `COc1ccc(C2c3cc4c(cc3OC(NNS(=O)(=O)c3ccc(C)cc3)C2C)OCO4)cc1` (stereo unspecified) is greater than 100 µM; for `O=[N+]([O-])C(=C1NCCN1)/C(Cl)=C(\Cl)Br` it is greater than 100 µM.

A further test deals with IGROV1 ovarian. Kind of test: growth of human tumour cells (NCI), 48 h.
The compound `COc1c(C)c(C/C=C(\C)CCCCO[Si](c2ccccc2)(c2ccccc2)C(C)(C)C)c(OC)c(OC)c1OC` came in with a TGI of 42.2 µM.
Same read-out and setting: the figure for `COC(=O)c1cc2c(n1S(=O)(=O)c1ccc(C)cc1)C(=O)C(=O)c1[nH]cc(C(=O)OCc3ccccc3)c1-2` is 0.559 µM.
As to `CC(C)CC(=O)OC[n+]1ccc(-c2c(COC(=O)NC(C)C)c(COC(=O)NC(C)C)c3n2CCC3)cc1`, the TGI is greater than 100 µM.
Still for that read-out and setting: the figure for `COC(=O)C1CCC(=O)N1C(c1ccccc1)c1ccc(OC)c(OC)c1` (stereo unspecified) is greater than 100 µM; for `COc1ccc(C2c3cc4c(cc3OC(NNS(=O)(=O)c3ccc(C)cc3)C2C)OCO4)cc1` (stereo unspecified) it is greater than 100 µM.
Still for that read-out and setting: for `O=[N+]([O-])C(=C1NCCN1)/C(Cl)=C(\Cl)Br` the value was greater than 100 µM.

A further test concerns M14 melanoma. Briefly: growth of human tumour cells (NCI), 48 h.
In turn, `COc1c(C)c(C/C=C(\C)CCCCO[Si](c2ccccc2)(c2ccccc2)C(C)(C)C)c(OC)c(OC)c1OC` gave a TGI greater than 46.4 µM.
The compound `COC(=O)c1cc2c(n1S(=O)(=O)c1ccc(C)cc1)C(=O)C(=O)c1[nH]cc(C(=O)OCc3ccccc3)c1-2` displayed a TGI of 0.167 µM.
Still for that read-out and setting: for `CC(C)CC(=O)OC[n+]1ccc(-c2c(COC(=O)NC(C)C)c(COC(=O)NC(C)C)c3n2CCC3)cc1` the value was greater than 100 µM; for `COC(=O)C1CCC(=O)N1C(c1ccccc1)c1ccc(OC)c(OC)c1` (stereo unspecified), greater than 100 µM.
The same measure, in the same setting: the figure for `COc1ccc(C2c3cc4c(cc3OC(NNS(=O)(=O)c3ccc(C)cc3)C2C)OCO4)cc1` (stereo unspecified) is greater than 100 µM; for `O=[N+]([O-])C(=C1NCCN1)/C(Cl)=C(\Cl)Br` it is greater than 100 µM.

The next test has as its system MCF7 breast. Briefly: growth of human tumour cells (NCI), 48 h.
`COc1c(C)c(C/C=C(\C)CCCCO[Si](c2ccccc2)(c2ccccc2)C(C)(C)C)c(OC)c(OC)c1OC` registered a TGI greater than 46.4 µM.
On the same count and under the same terms, for `COC(=O)c1cc2c(n1S(=O)(=O)c1ccc(C)cc1)C(=O)C(=O)c1[nH]cc(C(=O)OCc3ccccc3)c1-2` the value was 0.174 µM; for `CC(C)CC(=O)OC[n+]1ccc(-c2c(COC(=O)NC(C)C)c(COC(=O)NC(C)C)c3n2CCC3)cc1`, greater than 100 µM.
The same measure, in the same setting: the figure for `COC(=O)C1CCC(=O)N1C(c1ccccc1)c1ccc(OC)c(OC)c1` (stereo unspecified) is greater than 100 µM; for `COc1ccc(C2c3cc4c(cc3OC(NNS(=O)(=O)c3ccc(C)cc3)C2C)OCO4)cc1` (stereo unspecified) it is greater than 100 µM; for `O=[N+]([O-])C(=C1NCCN1)/C(Cl)=C(\Cl)Br` it is greater than 78.7 µM.

Another test concerns NCI-H522 lung. Kind of test: growth of human tumour cells (NCI), 48 h.
Regarding `COc1c(C)c(C/C=C(\C)CCCCO[Si](c2ccccc2)(c2ccccc2)C(C)(C)C)c(OC)c(OC)c1OC`, the TGI is greater than 100 µM.
For the compound `COC(=O)c1cc2c(n1S(=O)(=O)c1ccc(C)cc1)C(=O)C(=O)c1[nH]cc(C(=O)OCc3ccccc3)c1-2`, the TGI was determined as 0.48 µM.
`CC(C)CC(=O)OC[n+]1ccc(-c2c(COC(=O)NC(C)C)c(COC(=O)NC(C)C)c3n2CCC3)cc1` yielded a TGI greater than 100 µM.
Still for that read-out and setting: the figure for `COC(=O)C1CCC(=O)N1C(c1ccccc1)c1ccc(OC)c(OC)c1` (stereo unspecified) is greater than 100 µM.
Same read-out and setting: the figure for `COc1ccc(C2c3cc4c(cc3OC(NNS(=O)(=O)c3ccc(C)cc3)C2C)OCO4)cc1` (stereo unspecified) is greater than 100 µM; for `O=[N+]([O-])C(=C1NCCN1)/C(Cl)=C(\Cl)Br` it is 44.6 µM.

The next test deals with OVCAR-8 ovarian. Briefly: growth of human tumour cells (NCI), 48 h.
With `COc1c(C)c(C/C=C(\C)CCCCO[Si](c2ccccc2)(c2ccccc2)C(C)(C)C)c(OC)c(OC)c1OC`, the TGI is 35.6 µM.
Same read-out and setting: the figure for `COC(=O)c1cc2c(n1S(=O)(=O)c1ccc(C)cc1)C(=O)C(=O)c1[nH]cc(C(=O)OCc3ccccc3)c1-2` is 0.706 µM; for `CC(C)CC(=O)OC[n+]1ccc(-c2c(COC(=O)NC(C)C)c(COC(=O)NC(C)C)c3n2CCC3)cc1` it is greater than 100 µM; for `COC(=O)C1CCC(=O)N1C(c1ccccc1)c1ccc(OC)c(OC)c1` (stereo unspecified) it is greater than 100 µM.
As for `COc1ccc(C2c3cc4c(cc3OC(NNS(=O)(=O)c3ccc(C)cc3)C2C)OCO4)cc1` (stereo unspecified), the TGI is greater than 100 µM.
`O=[N+]([O-])C(=C1NCCN1)/C(Cl)=C(\Cl)Br` displayed a TGI greater than 100 µM.

In another test the test system is UACC-62 melanoma. Kind of test: growth of human tumour cells (NCI), 48 h.
`COc1c(C)c(C/C=C(\C)CCCCO[Si](c2ccccc2)(c2ccccc2)C(C)(C)C)c(OC)c(OC)c1OC`: the TGI was greater than 46.4 µM.
The same measure, in the same setting: for `COC(=O)c1cc2c(n1S(=O)(=O)c1ccc(C)cc1)C(=O)C(=O)c1[nH]cc(C(=O)OCc3ccccc3)c1-2` the value was 0.138 µM; for `CC(C)CC(=O)OC[n+]1ccc(-c2c(COC(=O)NC(C)C)c(COC(=O)NC(C)C)c3n2CCC3)cc1`, greater than 100 µM.
Still for that read-out and setting: the figure for `COC(=O)C1CCC(=O)N1C(c1ccccc1)c1ccc(OC)c(OC)c1` (stereo unspecified) is greater than 100 µM.
Same read-out and setting: the figure for `COc1ccc(C2c3cc4c(cc3OC(NNS(=O)(=O)c3ccc(C)cc3)C2C)OCO4)cc1` (stereo unspecified) is greater than 100 µM.
The compound `O=[N+]([O-])C(=C1NCCN1)/C(Cl)=C(\Cl)Br` returned a TGI greater than 100 µM.
